From US9949976B2, “Kinase inhibitor and use thereof” (Sihuan Pharmaceutical Holdings Group Ltd., priority 2013, dated 2018)

Columns and labels:
H358 lung cancer cell = experiment: BrdU cell proliferation assay (PerkinElme kit); assay type: cell-based; settings: Homo sapiens, NCI-H358, 48 h; read-out: In vitro cell-inhibiting activity IC50 H358
Experimental: (§1) Experimental method: cell proliferation assay was carried out by BrdU method (BrdU cell proliferation assay kit, PerkinElme Company).
(§2) Preparation of gradient dilution solutions of test compound: the stock solution containing 5 mM test compound was diluted by DMSO to prepare a 2 mM solution, then was subjected to 4-fold stepwise dilution to 9 concentration gradients.
(§3) (1) Cells grown to exponential growth phase were digested with pancreatin, and centrifuged to collect the cells. The adherent cells were re-suspended in the corresponding culture medium, counted, and seeded to a 96-well plate; H358 cells and SW780 cells were seeded at 4000 cells/well/100 μL; PC3 cells were seeded at 1500 cells/well/100 μL; H441 cells were seeded at 6000 cells/well/100 μL. The plates were placed in a cell incubator at 37° C. After the cells adhered to the wall, the medium was replaced by serum-free medium. The suspended cells MV-4-11 and JeKo-1 were re-suspended with serum-free medium, counted, seeded to a 96-well plate by 10000 cells/well/100 μL and placed in a cell incubator overnight at 37° C. with 5% CO2.
(§4) (2) To each well, 99 μL growth medium containing 2×FBS was added, then 1 μL diluted 200× test compound was added to the well. The final concentration of the test compound was 10000, 2500, 625, 156.25, 39.06, 9.77, 2.44, 0.61, 0.15 or 0 nM, and the cells were cultured for 48 h at 37° C.
(§5) (3) To each well, 2 μL 100-fold BrdU labelled solution was added, and the culture medium was sucked by a vacuum pump after incubation in a cell incubator overnight and equilibrated at room temperature for 0.5 h.
(§6) (4) To each well, 100 μL fixing solution was added; the solution was discarded after incubation for 30 min at room temperature.
(§7) (5) To each well, 100 μL 1-fold BrdU-Eu detection antibody solution was added, the solution was discarded after incubation for 1 h at room temperature, and the well was washed with 1-fold washing liquor at 250 μL/well for 5 times.
(§8) (6) To each well, 200 μL of DELFIA Inducer was added and incubated for 15 min at room temperature. Value of fluorescence (Flu) was measured by ELISA instrument
(§9) (2) The data was processed by GraphPad Prism 6 software to get a curve and IC50 values.

JeKo-1 lymphoma cell = experiment: BrdU cell proliferation assay (PerkinElme kit); assay type: cell-based; settings: Homo sapiens, JeKo-1, 48 h; read-out: In vitro cell-inhibiting activity IC50 JeKo-1
Experimental: as §1, §2, §3, §4, §5, §6, §7, §8, §9

H441 lung cancer cell = experiment: BrdU cell proliferation assay (PerkinElme kit); assay type: cell-based; settings: Homo sapiens, NCI-H441, 48 h; read-out: In vitro cell-inhibiting activity IC50 H441
Experimental: as §1, §2, §3, §4, §5, §6, §7, §8, §9

[1] = test system: PC3 prostatic cancer cell; experiment: BrdU cell proliferation assay (PerkinElme kit); assay type: cell-based; settings: 48 h; read-out: In vitro cell-inhibiting activity IC50 PC3
Experimental: as §1, §2, §3, §4, §5, §6, §7, §8, §9

[2] = test system: SW780 bladder cancer cell; experiment: BrdU cell proliferation assay (PerkinElme kit); assay type: cell-based; settings: Homo sapiens, SW780, 48 h; read-out: In vitro cell-inhibiting activity IC50 SW780
Experimental: as §1, §2, §3, §4, §5, §6, §7, §8, §9

liver cancer PDX model = experiment: In vivo pharmacodynamics, liver cancer PDX model; set-up: species or system female NU/NU nude mouse; settings: 200 mg/kg PO QD 21 days
Experimental: (§10) Tumor tissues were harvested from tumor-bearing mice of liver cancer PDX model, cut into pieces with diameter of 10-15 mm and seeded subcutaneously to back of female NU/NU nude mouse. When the tumors' average volume reached 100-300 mm^3, the animals were grouped and administered with a drug. Compound 1 was orally administrated once a day at an amount of 200 mg/kg, for 21 days. The volume of the drug for administration is 0.1 mL/10 g according to animal's body weight.
(§11) Tumor volume was measured with vernier calipers twice a week by measuring the major diameter and the minor diameter. The tumor volume is calculated by the following formula: volume=0.5×(major diameter)×(minor diameter)^2. The relative tumor volume (RTV) and the proliferation ratio (T/C) were calculated according to the result of measurement. RTV=Vt/V0, wherein Vt is the average tumor volume on the t day after grouping, and V0 is the average tumor volume on the day of grouping. T/C (%)=RTV of treatment group/RTV of solvent control group×100%.
(§12) One-way ANOVA was used for analysing the group statistical analysis of tumor volumes. p<0.05 was regarded as having significant difference.

[3] = test system: esophageal cancer PDX model; experiment: In vivo pharmacodynamics, esophageal cancer PDX model; set-up: species or system female BALB/c nude mouse; settings: 150 mg/kg PO QD 21 days
Experimental: as §10, with “esophageal” for “liver”, “2-4” for “10-15”, “right lateral thorax” for “back”, “BALB/c” for “NU/NU”, “about 150” for “100-300”, “150” for “200”
as §11, §12

## CCN1CCN(Cc2cnc(Nc3cc(-c4cc(F)c5nc(C)n(C(C)C)c5c4)c(F)cn3)nc2)CC1 [Compound 1, 5-((4-ethylpiperazin-1-yl)methyl)-N-(5-fluoro-4-(4-fluoro-1-isopropyl-2-methyl-1H-benzo[d]imidazol-6-yl)pyridin-2-yl)pyrimidin-2-amine]
H358 lung cancer cell
  IC50: 291 nM
JeKo-1 lymphoma cell
  IC50: 37 nM
H441 lung cancer cell
  IC50: 148 nM
[1]
  IC50: 260 nM
[2]
  IC50: 162 nM
Liver cancer PDX model
  T/C (proliferation ratio): 31.74%
Liver cancer PDX model; average ± standard error
  Tumor volume after administration: 199.22 ± 33.76 mm^3
  Tumor volume before administration: 164.8 ± 10.35 mm^3
[3]; 150 mg/kg
  T/C (proliferation ratio): 29%
[3]; average ± standard error
  Tumor volume after administration: 221.6 ± 27.2 mm^3
  Tumor volume before administration: 177.7 ± 28.5 mm^3
